Assay [1] has as its target T1, binding of His-XIAP(BIR2)-avi fusion protein to GST-RIPK2 fusion protein (RIPK2/XIAP) (Homo sapiens, UniProt O43353).
T1 construct: made in house; host or cells: baculovirus infected Sf9 cells
As to the kind of experiment: RIPK2-XIAP binding competition PPI assay (TR-FRET). The following applies: RIPK2/XIAP binding competition PPI assay; for Emax / PPI Amax bin: Amax; for Emax: read-out: PPI Amax bin; for IC50: read-out: PPI IC50 bin. The source says:
The ability of selected compounds of Formula (I) to inhibit the binding of an His-XIAP(BIR2)-avi fusion protein to a GST-RIPK2 fusion protein was quantified employing the TR-FRET-based competition assay as described in the following paragraphs.
Recombinant fusion protein of N-terminal Glutathione-S-Transferase (GST) and a fragment of human RIPK2 (amino acids 1-310 of accession number 043353), expressed in baculovirus infected Sf9 cells, purified via glutathione affinity chromatography, was used as GST-RIPK2 fusion protein. Recombinant fusion protein of N-terminal 6×Histidine (His), a fragment of human XIAP (amino acids 152-231 of accession number P98170), and C-terminal avi tag, expressed in baculovirus infected Sf9 cells, purified via Nickel NTA affinity chromatography, was used as the His-XIAP(BIR2)-avi fusion protein.
For the assay, a working solution of 1 nM GST-RIPK2, 25 nM His-XIAP(BIR2)-avi, 6 nM Anti-His-XL665 […] (Revvity Catalogue No. 61HISXLB), and 0.5 nM Anti-GST-Tb (Revvity Catalogue No. 61GSTTLB) in 25 mM Tris-HCl 7.5, 0.5 mM ethylene glycol-bis(2-aminoethylether)-N,N,N′,N′-tetraacetic acid (EGTA), 10 mM magnesium chloride (MgCl2), 2.5 mM dithiothreitol (DTT), 0.01% (w/v) bovine serum albumin (BSA), 0.005% (w/v) Pluronic F-127 (Sigma), 0.5 mM sodium ortho-vanadate, 5 mM β-Glycerophosphate disodium salt hydrate (BGP) was prepared. 50 nL of a 100-fold concentrated solution of each test compound in DMSO was dispensed via acoustic dispensing into a white low volume 384-well microtiter plate (Perkin Elmer Catalogue No. 6008280). Subsequently, 5 μL of the assay working solution were added.
The resulting mixture was incubated 120 min at 23° C. Subsequently, the amount of complex formed by the GST-RIPK2, XIAP(BIR2)-avi, Anti-His-XL665, and Anti-GST-Tb was evaluated by measurement of the resonance energy transfer from the Tb-cryptate to the XL665. Therefore, the fluorescence emissions at 520 nm and 665 nm after excitation at 337 nm were measured in a TR-FRET reader, e.g. a Pherastar FS (BMG Labtechnologies, Offenburg, Germany) or an Envision (PerkinElmer). The ratio of the emissions at 665 nm and at 520 nm was taken as the measure of the amount of the complex. The data were normalized (assay reaction without inhibitor=0% activity, 50 nM of GSK583=−100% activity).
For the RIPK2/XIAP binding competition PPI assay Amax values, “A” denotes an Amax of ≥80%; “B” denotes an Amax of 80%>B≥55; “C” denotes an Amax of 55%>C>30; and “D” denotes an Amax of ≤30%.
A general note: TR-FRET usually uses a lanthanide donor and a delayed reading to cut background.

Assay [2] deals with NF-κB pathway (SEAP) in THP1-Dual cells. Description: THP-1 Dual cell SEAP assay (L18-MDP stimulated). The assay is classed as cell-based. The following applies: read-out: NF-κB THP1 IC50 bin. As for the experimental part:
THP1-Dual™ cells (InvivoGen Cat #thpd-nfis) allow simultaneous assessment of the NF-κB pathway, by monitoring the activity of secreted embryonic alkaline phosphatase (SEAP) as well as the IRF pathway, by assessing the activity of a secreted luciferase (Lucia). Cells were cultured according to manufacturers' recommendations. For the assay, cell concentration was adjusted to 7.14×10^5 cells/mL in assay media (RPMI 1640, 2 mM L-Glutamine, 25 mM HEPES, 10% fetal bovine serum (heat-inactivated for 30 min at 56° C.), Pen-Strep (100 U/mL)) and 35 µL of cell suspension (˜25,000 cells) per well were added to a flat bottom 384-well plate (white opaque). Plate was centrifuged at 300 g for 2 min, compounds were added in serial dilution series according to the plate layout (volumes ˜500 nL-0.0152 nL) and plate was incubated at 37° C. in 5% CO2 for 30 min. Using assay media, a L18-MDP stock solution, that results in a final concentration of 10 ng/mL L18-MDP in each well when adding 15 μL to each well, was prepared. 15 μL of L18-MDP stock solution was added to each well, while 15 μL of assay media was added to the negative control wells. Plates were subsequently incubated at 37° C. in 5% CO2 overnight (20-24 h).
For the SEAP assay: without disturbing the cells at the bottom of the well, 15 μL supernatant was transferred to a clear 384-well flat bottom plate and 35 μL QUANTI-Blue Solution per well was added. Following a 2 h incubation at 37° C., the optical density (OD) was measured at 620-655 nm using a microplate reader (PheraStar FS microplate reader with protocol for OD 620-655 nm).
Values of media-only wells were subtracted and % inhibition for each compound concentration relative to the DMSO/L18-MDP-treated controls was calculated. Inhibition values+/−SD were fitted by non-linear regression using Prism software (GraphPad PRISM Software) to calculate IC50 values.

Read-outs that look alike come from different tables or passages of the source.

Broadly, the IC50 is the concentration at which inhibition is half-maximal.

T1 sequence (O43353 1-310 limits assumed): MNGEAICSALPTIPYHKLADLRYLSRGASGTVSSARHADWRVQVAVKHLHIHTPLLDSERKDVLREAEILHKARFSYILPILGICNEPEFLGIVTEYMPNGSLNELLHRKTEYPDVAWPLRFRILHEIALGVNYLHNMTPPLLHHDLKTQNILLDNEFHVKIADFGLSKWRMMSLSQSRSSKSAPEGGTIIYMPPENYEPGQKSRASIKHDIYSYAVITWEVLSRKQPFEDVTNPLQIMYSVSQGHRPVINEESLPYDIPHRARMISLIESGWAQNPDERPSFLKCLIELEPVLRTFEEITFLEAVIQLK

With `CC(F)(CO)COc1cc2ncc(-c3cc(F)c(N)nc3F)n2cc1S(=O)(=O)C(C)(C)C` (single isomer, unassigned) [Example 260], in assay [1], the Emax is greater than 80% and the IC50 was 1 to 2.5 nM. Besides, the IC50 in assay [2] (Homo sapiens, THP1-Dual) fell in the range of 50 to 250 nM.
Take `COc1cc2ncc(-c3cc(F)cc(NS(=O)(=O)c4cnn(C)c4)c3)n2cc1S(=O)(=O)C(C)(C)C` [Example 284, N-(3-(6-(tert-butylsulfonyl)-7-methoxyimidazo[1,2-a]pyridin-3-yl)-5-fluorophenyl)-1-methyl-1H-pyrazole-4-sulfonamide]: in assay [1], the Emax was greater than 80% and the half-inhibitory concentration (IC50) is less than 1 nM. In addition, in assay [2] (Homo sapiens, THP1-Dual), the IC50 fell in the range of 50 to 250 nM.
In the case of `COc1ccc(-c2cnc3cc(OC)c(S(=O)(=O)C(C)(C)C)cn23)cc1NS(=O)(=O)c1cnn(C)c1` [Example 282, N-(5-(6-(tert-butylsulfonyl)-7-methoxyimidazo[1,2-a]pyridin-3-yl)-2-methoxyphenyl)-1-methyl-1H-pyrazole-4-sulfonamide], in assay [1], the Emax is greater than 80%. The IC50 in assay [1] is less than 1 nM; in assay [2] (Homo sapiens, THP1-Dual), less than 50 nM.
In the case of `COc1cc2ncc(-c3cc(NS(=O)(=O)c4cnn(C)c4)c(OC)c(OC)c3)n2cc1N1CC(C)CC1=O` (single isomer, unassigned) [Example 274], in assay [1], the Emax is greater than 80% and the IC50 was in the range of 2.5 to 20 nM. In assay [2], the IC50 was 250 to 1000 nM.
Regarding `CC(=O)COc1cc2ncc(-c3cc(Cl)c(N)nc3F)n2cc1S(=O)(=O)C(C)(C)C` [Example 300, 1-((3-(6-amino-5-chloro-2-fluoropyridin-3-yl)-6-(tert-butylsulfonyl)imidazo[1,2-a]pyridin-7-yl)oxy)propan-2-one], in assay [1], the Emax was greater than 80% and the concentration for half-maximal inhibition (IC50) lay within 2.5 to 20 nM. Besides, in assay [2] (Homo sapiens, THP1-Dual), the IC50 was 250 to 1000 nM.
For `COc1cc2ncc(-c3cc(F)c(OC)c(NS(=O)(=O)c4cn[nH]c4)c3)n2cc1C(F)(F)F` [Example 137, N-(3-fluoro-2-methoxy-5-(7-methoxy-6-(trifluoromethyl)imidazo[1,2-a]pyridin-3-yl)phenyl)-1H-pyrazole-4-sulfonamide], in assay [1], the Emax was greater than 80%. The IC50 in assay [1] is 2.5 to 20 nM; in assay [2] (Homo sapiens, THP1-Dual) it was 250 to 1000 nM.
In the case of `COc1cc2ncc(-c3cc(NS(=O)(=O)c4cnn(C)c4)c(OC)c(OC)c3)n2cc1N1CC(C)CC1=O` (single isomer, unassigned) [Example 275], in assay [1], the “PPI Amax bin” value is recorded as “A (an Amax of ≥80%)” and the IC50 is 1 to 2.5 nM. Moreover, the IC50 in assay [2] lay in the range of 50 to 250 nM.
For `COc1c(F)cc(-c2cnc3cc(OC[C@H](C)O)c(S(=O)(=O)C(C)(C)C)cn23)cc1NS(=O)(=O)c1cnn(C)c1` [Example 264, (S)-N-(5-(6-(tert-butylsulfonyl)-7-(2-hydroxypropoxy)imidazo [1,2-a]pyridin-3-yl)-3-fluoro-2-methoxyphenyl)-1-methyl-1H-pyrazole-4-sulfonamide], in assay [1], the Emax is greater than 80% and the IC50 was less than 1 nM. Further, the half-maximal inhibitory concentration (IC50) in assay [2] (Homo sapiens, THP1-Dual) is less than 50 nM.
In the case of `COc1cc2ncc(-c3cc(F)c(OC)c(NC(C)c4cnn(C)c4)c3)n2cc1S(=O)(=O)C(C)(C)C` (single isomer, unassigned) [Example 303], in assay [1], the “PPI Amax bin” value is on record as “A (an Amax of ≥80%)” and the IC50 lay within 2.5 to 20 nM. The IC50 in assay [2] was 250 to 1000 nM.
For the compound `CC(F)(CO)COc1cc2ncc(-c3cc(F)c(N)nc3F)n2cc1S(=O)(=O)C(C)(C)C` (single isomer, unassigned) [Example 261], the IC50 in assay [1] was in the range of 1 to 2.5 nM; in assay [2], 50 to 250 nM.
For the compound `COc1cc2ncc(-c3cc(F)c(OC)c(NS(=O)(=O)c4cnn(C)c4)c3)n2cc1C(F)(F)F` [Example 136, N-(3-fluoro-2-methoxy-5-(7-methoxy-6-(trifluoromethyl)imidazo[1,2-a]pyridin-3-yl)phenyl)-1-methyl-1H-pyrazole-4-sulfonamide], in assay [1], the Emax was greater than 80% and the IC50 is 2.5 to 20 nM. Further, the 50% inhibitory concentration (IC50) in assay [2] (Homo sapiens, THP1-Dual) is 250 to 1000 nM.
On the same counts, the results for `COc1cc2ncc(-c3cc(F)c(OC)c(NS(=O)(=O)c4cnn(C)c4)c3)n2cc1S(=O)(=O)C(C)C` [Example 262, N-(3-fluoro-5-(6-(isopropylsulfonyl)-7-methoxyimidazo[1,2-a]pyridin-3-yl)-2-methoxyphenyl)-1-methyl-1H-pyrazole-4-sulfonamide] are greater than 80%, less than 1 nM and less than 50 nM.
For `COc1cc2ncc(-c3cc(F)c(OC)c(NC(C)c4cnn(C)c4)c3)n2cc1S(=O)(=O)C(C)(C)C` (single isomer, unassigned) [Example 302], in assay [1], the Emax was greater than 80% and the IC50 was less than 1 nM. Also, the IC50 in assay [2] is less than 50 nM.
Take `C[C@H](O)COc1cc2ncc(-c3cc4cc[nH]c4nc3F)n2cc1S(=O)(=O)C(C)(C)C` [Example 268, (S)-1-((6-(tert-butylsulfonyl)-3-(6-fluoro-1H-pyrrolo[2,3-b]pyridin-5-yl)imidazo[1,2-a]pyridin-7-yl)oxy)propan-2-ol]: in assay [1], the Emax was greater than 80%. Moreover, the half-inhibitory concentration (IC50) in assay [1] was less than 1 nM; in assay [2] (Homo sapiens, THP1-Dual), less than 50 nM.
On the same counts, the results for `COc1cc2ncc(-c3cc(F)c(OC)c(NS(=O)(=O)c4cnc(C)s4)c3)n2cc1S(=O)(=O)C(C)(C)C` [Example 287, N-(5-(6-(tert-butylsulfonyl)-7-methoxyimidazo[1,2-a]pyridin-3-yl)-3-fluoro-2-methoxyphenyl)-2-methylthiazole-5-sulfonamide] are 55 to 80%, less than 1 nM and 50 to 250 nM.
With `CCOc1cc2ncc(-c3cc(F)c(OC)c(NS(=O)(=O)c4cnn(C)c4)c3)n2cc1S(=O)(=O)C(C)C` [Example 138, N-(5-(7-ethoxy-6-(isopropylsulfonyl)imidazo[1,2-a]pyridin-3-yl)-3-fluoro-2-methoxyphenyl)-1-methyl-1H-pyrazole-4-sulfonamide], in assay [1], the Emax is greater than 80% and the 50% inhibitory concentration (IC50) is less than 1 nM. Moreover, the IC50 in assay [2] (Homo sapiens, THP1-Dual) was less than 50 nM.
The like results for `COc1c(F)cc(-c2cnc3cc(Cl)c(S(=O)(=O)C(C)(C)C)cn23)cc1NS(=O)(=O)c1cnn(C)c1` [Example 263, N-(5-(6-(tert-butylsulfonyl)-7-chloroimidazo[1,2-a]pyridin-3-yl)-3-fluoro-2-methoxyphenyl)-1-methyl-1H-pyrazole-4-sulfonamide] were, in that order, greater than 80%, less than 1 nM and less than 50 nM.

Source of the values: patent publication US20260137706A1, “METHODS OF TREATING INFLAMMATORY DISEASES” (INTERLINE THERAPEUTICS, INC., priority 2023, published 2026).
